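The compound was tested at five concentrations on cells cultured in 96-well plates, with a 48-hour exposure period. The concentration for full growth arrest is given as TGI.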
What was measured:
Experiment in all cases: DTP human tumour cell line panel, 48 h
SF-295 CNS = test system: SF-295 CNS
SK-MEL-28 melanoma = test system: SK-MEL-28 melanoma
OVCAR-5 ovarian = test system: OVCAR-5 ovarian
OVCAR-8 ovarian = test system: OVCAR-8 ovarian
HCT-15 colon = test system: HCT-15 colon
DMS 114 small cell lung = test system: DMS 114 small cell lung
CAKI-1 renal = test system: CAKI-1 renal
EKVX NSCLC = test system: EKVX NSCLC
HCT-116 colon = test system: HCT-116 colon
KM20L2 colon = test system: KM20L2 colon
HOP-92 NSCLC = test system: HOP-92 NSCLC
IGROV1 ovarian = test system: IGROV1 ovarian
RXF-631 renal = test system: RXF-631 renal
M14 melanoma = test system: M14 melanoma
HL-60(TB) leukemia = test system: HL-60(TB) leukemia
SK-OV-3 ovarian = test system: SK-OV-3 ovarian
A549 NSCLC = test system: A549 NSCLC
COLO 205 colon = test system: COLO 205 colon
OVCAR-4 ovarian = test system: OVCAR-4 ovarian
SW-620 colon = test system: SW-620 colon
SF-268 CNS = test system: SF-268 CNS
NCI-H23 lung = test system: NCI-H23 lung
HOP-62 NSCLC = test system: HOP-62 NSCLC
SNB-75 CNS = test system: SNB-75 CNS
NCI-H460 lung = test system: NCI-H460 lung
HOP-18 NSCLC = test system: HOP-18 NSCLC
UACC-62 melanoma = test system: UACC-62 melanoma
TK-10 renal = test system: TK-10 renal
RPMI-8226 leukemia = test system: RPMI-8226 leukemia
U251 CNS = test system: U251 CNS
HCC-2998 colon = test system: HCC-2998 colon
SK-MEL-5 melanoma = test system: SK-MEL-5 melanoma
UO-31 renal = test system: UO-31 renal
M19-MEL melanoma = test system: M19-MEL melanoma
MOLT-4 leukemia = test system: MOLT-4 leukemia
NCI-H522 lung = test system: NCI-H522 lung
ACHN renal = test system: ACHN renal
RXF 393 renal = test system: RXF 393 renal
CCRF-CEM leukemia = test system: CCRF-CEM leukemia
SK-MEL-2 melanoma = test system: SK-MEL-2 melanoma
MALME-3M melanoma = test system: MALME-3M melanoma
HT29 colon = test system: HT29 colon
SF-539 CNS = test system: SF-539 CNS
K-562 leukemia = test system: K-562 leukemia
SN12C renal = test system: SN12C renal
SNB-78 CNS = test system: SNB-78 CNS
OVCAR-3 ovarian = test system: OVCAR-3 ovarian
NCI-H226 lung = test system: NCI-H226 lung
UACC-257 melanoma = test system: UACC-257 melanoma
SNB-19 CNS = test system: SNB-19 CNS
LXFL 529 NSCLC = test system: LXFL 529 NSCLC
DLD-1 colon = test system: DLD-1 colon
A498 renal = test system: A498 renal
SR leukemia = test system: SR leukemia
LOX IMVI melanoma = test system: LOX IMVI melanoma
786-0 renal = test system: 786-0 renal
DMS 273 small cell lung = test system: DMS 273 small cell lung
KM12 colon = test system: KM12 colon
XF 498 CNS = test system: XF 498 CNS

Measured: TGI

Cc1cc(N(CCC#N)S(=O)(=O)c2ccccc2)ccc1C=Nc1cccc(C(=O)O)c1
not listed: DLD-1 colon | A498 renal | SR leukemia | LOX IMVI melanoma | 786-0 renal | DMS 273 small cell lung | KM12 colon | XF 498 CNS
> 100 µM: all other assays above

CC1CC(=O)Nc2ccc(Cl)cc2N1C(=O)CN1CCC(CCCCN(C)C)CC1 (stereo not given)
not listed: EKVX NSCLC | SNB-75 CNS | M19-MEL melanoma | NCI-H522 lung | RXF 393 renal | SK-MEL-2 melanoma | SF-539 CNS | SNB-78 CNS | KM12 colon | XF 498 CNS
> 100 µM: all other assays above

CCCC(=O)OCC1OC2OC(C)(C)OC2C2OC(C)(C)OC12 (stereo not given)
61.1 µM: TK-10 renal
not listed: HCT-15 colon | DMS 114 small cell lung | CAKI-1 renal | KM20L2 colon | COLO 205 colon | OVCAR-4 ovarian | SW-620 colon | SF-268 CNS | SNB-75 CNS | HOP-18 NSCLC | UACC-62 melanoma | RPMI-8226 leukemia | HCC-2998 colon | SK-MEL-5 melanoma | SK-MEL-2 melanoma | MALME-3M melanoma | SF-539 CNS | K-562 leukemia | SN12C renal | OVCAR-3 ovarian | LXFL 529 NSCLC | DLD-1 colon | LOX IMVI melanoma | 786-0 renal | XF 498 CNS
> 100 µM: all other assays above

COC(=O)C(C(=O)C(=O)Nc1ccc(C)cc1)c1nc2ccc([N+](=O)[O-])cc2[nH]c1=O (stereo not given)
not listed: HOP-92 NSCLC | RXF-631 renal | RPMI-8226 leukemia
> 100 µM: all other assays above

Source: PubChem BioAssay (NCI)
